We go through two compounds from patent publication US10052296B2, “Formulations for treating pain” (priority 2016, dated 2018).

Data set [1] deals with rat whole blood (male), red blood cells. The experiment in a line: In vitro hemolysis test, rat blood. The following applies: 15 min at 37° C.; for % Hemolysis: Rat Blood; for interpretation of hemolysis to Red Blood Cells: rat whole unclotted blood, concentrations tested. The method, then:
(§1) APAP and GBP alone or in combination were evaluated in the in vitro hemolysis test using four biologic matrices (mouse, rat, dog and human whole unclotted blood) to determine the hemolytic potential for each on red blood cells.

For data set [2] the following is noted: Koshy et al; cited from earlier work.
Data set [3] in a line: Pharmacokinetics in rats after 15 min IV infusion. Particulars: for AUC / Cmax: male, rat, plasma, iv. The method, then: Formulation compositions were prepared by dissolving GBP and/or APAP as indicated in Table 5 and the pH was adjusted to 5.5 using HCl or NaOH.
Blood samples were collected over a 24 h period at which time the rats were exsanguinated and blood collected for Clinical Pathology (Chemistry, Hematology and Coagulation) evaluation. Finally, all animals were necropsied (all exterior and interior cavities and organs were examined) and the site of infusion in the jugular vein, lung, liver and kidney underwent histopathologic evaluation.

Data set [4] deals with human (pooled) whole blood, red blood cells. The data set is described as follows: In vitro hemolysis test, human blood. The following applies: 15 min at 37° C.; for % Hemolysis: Human Blood; for interpretation of hemolysis to Red Blood Cells: human whole unclotted blood, concentrations tested. As for the experimental part: as §1
For data set [5], the system named is beagle dog whole blood (male), red blood cells. The experiment in a line: In vitro hemolysis test, dog blood. Particulars: 15 min at 37° C.; for % Hemolysis: Dog Blood; for interpretation of hemolysis to Red Blood Cells: dog whole unclotted blood, concentrations tested. The method, then: as §1
In data set [6] the test system is mouse whole blood (male), red blood cells. The data set is described as follows: In vitro hemolysis test, mouse blood. Particulars: 15 min at 37° C.; for % Hemolysis: Mouse Blood; for interpretation of hemolysis to Red Blood Cells: mouse whole unclotted blood, concentrations tested. The method, then:
as §1

Another data set concerns motor control. The experiment in a line: Mouse RotoRod/Acelerorod test. Particulars: mice, 15 minute IV infusion, 10 mg Acetaminophen/mL, 8 mg Gabapentin/mL; 1, 2, 4, 6 h. As for the experimental part: Mouse tail flick test was conducted to evaluate test somatic pain and mouse rotorod/acelorod test evaluated behavioral changes, specifically somnolence or dizziness
In each case a positive control was administered as described below.
Male ICR mice were trained on a RotoRod/Acelerod at a continuous accelerating speed from 4 to 30 rpm/min during a time period of 4 minutes for at least 3 times on day 0. Vehicle or test article at a single dose is administered by intravenous infusion over 15 minutes starting 30 minutes before the test period starts and chlorpromazine (30 mg/kg, PO) was administered by oral gavage 60 minutes before the start of the test period. At 1, 2, 4, and 6 hours after the start of the test the mice are placed on the accelerating rotorod (increasing from 4 to 30 rpm/min during a 4 min period) and the time (seconds) the mouse remained on the rotorod was recorded. One-way ANOVA followed by Dunnett's test is applied for comparison between vehicle control and test article groups. P<0.05 is considered significant.
A baseline was measured before administration of the test agents and at 1, 2, 4 and 6 h post the start of the study. The effect of the compounds was evaluated in the standard RotoRod/Acelerorod test.

Data set [7] is described as follows: Stability of gabapentin in presence of different stabilizers and solvents. The following applies: GBP 9 mg/mL in acetate buffer. In kind it is physicochemical. The method, then:
GBP containing formulations were prepared by dissolving GBP to a concentration of 9 mg/mL in acetate buffer. A first set of samples were tested for assay and impurities after the initial preparation of formulation. Another set of samples were steam sterilized at 121° C. for 15 min and were tested for assay and impurity levels.

Another data set deals with rats. The experiment in a line: Toxicologic profile in rats (clinical pathology, necropsy, histopathology).

Consider `CC(=O)Nc1ccc(O)cc1` [Acetaminophen], for which the “% Hemolysis” value in data set [1] (APAP 5 mg/mL) turned out to be 0%; in data set [1] (APAP 10 mg/mL), 0%; in [4] (APAP 5 mg/mL) it was 0%; in [4] (APAP 10 mg/mL), 0%; in data set [5] (APAP 5 mg/mL), 0%; in data set [5] (APAP 10 mg/mL), 5%. The “% Hemolysis” value in [6] (APAP 5 mg/mL) and in data set [6] (APAP 10 mg/mL) was 4% throughout. In addition, the “interpretation of hemolysis to Red Blood Cells” value in [1], in data set [4], in data set [5] and in data set [6] was “not considered to be hemolytic” in each case. For the same compound, the “pH range of minimum hydrolysis of APAP” value in [2] is 5-7. The area under the curve (AUC) in data set [3] (Acetaminophen PK AUC, 15 min IV infusion) was 7280 ng·h/mL; in data set [3] (Bioequivalent Range (80-125%) AUC, 15 min IV infusion, 80-125% of single-drug value), 5830 to 9110 ng·h/mL. Also, the Cmax in data set [3] (Acetaminophen PK Cmax, 15 min IV infusion) is 10100 ng/mL; in data set [3] (Bioequivalent Range (80-125%) Cmax, 15 min IV infusion, 80-125% of single-drug value) it was 8110 to 12700 ng/mL. The “decrease in motor control compared to the vehicle control” value in the data set on motor control is listed as “no statistically significant decrease in motor control”.
For the compound “1-(aminomethyl) cyclohexane acetic acid [Gabapentin]”, the “% Hemolysis” value was found to be 0% in data set [1] (GBP 2 mg/mL); 0% in data set [1] (GBP 4 mg/mL); 0% in data set [1] (GBP 8 mg/mL); 0% in data set [4] (GBP 2 mg/mL); 2% in [4] (GBP 4 mg/mL); 0% in [4] (GBP 8 mg/mL). The “% Hemolysis” value in data set [5] (GBP 2 mg/mL), in [5] (GBP 4 mg/mL), in data set [5] (GBP 8 mg/mL), in data set [6] (GBP 2 mg/mL), in [6] (GBP 4 mg/mL) and in data set [6] (GBP 8 mg/mL) was 0% throughout. Besides, the “interpretation of hemolysis to Red Blood Cells” value in data set [1], in data set [4], in data set [5] and in data set [6] was “not considered to be hemolytic” each time. Moreover, the “order of stability of GBP in solvents and stabilizers” value in data set [7] is recorded as “PVP>Glycine>Lysine>Propylene Glycol>Sorbitol>PEG400>Glycerol>Mannitol>Sodium Oleate>β-cyclodextrin>Deoxychloic Acid>CMC>L-Glutamic Acid”. The “stability of GBP with stabilizer” value in data set [7] (PVP at 10 mg/mL) was “more stable”. Moreover, in the data set with rats (24 h after 15 minute IV infusion), the “Clinical Pathology (Clinical Chemistry, Hematology or Coagulation Parameters)” value is recorded as “did not alter the Clinical Pathology”. For the same compound, the “histopathology of tissues compared to vehicle control” value in the data set on rats (infusion site, lung, liver, kidney) was “no changes in the histopathology”. In addition, the “Gabapentin PK AUC” value in data set [3] (15 min IV infusion) is 37,663 ng · h/mL. The “Gabapentin PK Cmax” value in data set [3] (15 min IV infusion) was 20,138 ng/mL. Moreover, the “PK profile of GBP” value in data set [3] (in the presence of APAP) is on record as “no change”. In the data set on motor control, the “decrease in motor control compared to the vehicle control” value is given as “no statistically significant decrease in motor control”.
